pEC50: −log10 of the molar value.

The results in this text go back to PubChem BioAssay AID1053146 (Broad Institute, 2014).

In this experiment the test system is HepG2 BODIPY-LDL uptake, high-content imaging. The experiment is described as follows: increase of fluorescent LDL uptake in hepatoma cells – imaging, BODIPY-LDL, cherry-pick, dose response (AID 1053146).

Consider `CN1C(=O)c2cc(NC(=O)c3ccc(C(F)(F)F)cc3)ccc2OC[C@@H]2O[C@H](CC(=O)NC3Cc4ccccc4C3)CC[C@@H]21`, for which the pEC50 (in general, the negative decadic logarithm of the EC50, by convention in mol/L) is 5.96. As for `CN1C(=O)c2cc(NC(=O)c3ccc(C(F)(F)F)cc3)ccc2OC[C@@H]2O[C@@H](CC(=O)NC3Cc4ccccc4C3)CC[C@@H]21`, the pEC50 is 5.34.
